Patent US20100004238A1, “FUSED HETEROCYCLIC COMPOUND” (TAKEDA PHARMACEUTICAL COMPANY LIMITED, priority 2006, published 2010)
Where a name gives a salt, the structure may show the parent alone.

What was measured:
[1] = molecular target: T1, HER2 intracellular domain (HER2 kinase) (Homo sapiens, UniProt P04626); experiment: Determination of HER2 kinase inhibitory activity; format: biochemical; details: compound at 1.0 μM, poly-Glu:Tyr (4:1) substrate, [γ-32P]ATP, read-out: inhibitory rate (%) at 1.0 μM
T1 construct: made in house; host or cells: SF-21 insect cells infected with recombinant baculovirus BAC-HER2
T1 sequence (P04626 676-1255): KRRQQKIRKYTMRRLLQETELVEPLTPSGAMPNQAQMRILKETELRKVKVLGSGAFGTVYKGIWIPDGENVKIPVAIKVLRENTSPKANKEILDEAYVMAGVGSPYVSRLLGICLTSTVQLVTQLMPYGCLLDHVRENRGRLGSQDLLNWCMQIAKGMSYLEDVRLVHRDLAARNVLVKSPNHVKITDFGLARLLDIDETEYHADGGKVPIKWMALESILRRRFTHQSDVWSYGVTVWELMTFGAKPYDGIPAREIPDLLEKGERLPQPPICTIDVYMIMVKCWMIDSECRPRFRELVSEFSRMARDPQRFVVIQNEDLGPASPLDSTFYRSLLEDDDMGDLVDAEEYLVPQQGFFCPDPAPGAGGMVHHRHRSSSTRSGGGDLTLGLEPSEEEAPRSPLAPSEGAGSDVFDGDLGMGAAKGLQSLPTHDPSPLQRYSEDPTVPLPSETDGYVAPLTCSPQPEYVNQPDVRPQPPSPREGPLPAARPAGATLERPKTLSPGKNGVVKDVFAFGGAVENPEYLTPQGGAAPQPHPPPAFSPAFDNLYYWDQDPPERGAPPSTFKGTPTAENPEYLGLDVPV
Procedure: Human HER2 gene was cloned by RT-PCR using total RNA prepared from MCF7 cells as a template. The primer used for RT-PCR was prepared in consideration of the information of nucleotide sequence (Genbank Accession No. M11730) of HER2 gene by adding a nucleotide sequence encoding DYKDDDD peptide and a restriction enzyme recognition sequence to a nucleotide sequence (corresponding to 2176-3918 of Genbank Accession No. M11730 as a base, 676-1255 amino acids of Genbank Accession No. NP_004439 as a protein) encoding the HER2 intracellular domain region such that the protein contains an N-terminal DYKDDDD peptide tag. The primer nucleotide sequence is shown below.
SF-21 cells were sown at 1×10^6 cells/mL in Sf-900II SFM medium (1 L, Invitrogen) containing 10% fetal bovine serum (trace), 50 mg/L gentamicin (Invitrogen) and 0.1% Pluronic F-68 (Invitrogen), and shaking culture was performed using a 2 L volume Erlenmeyer flask at 27° C., 100 rpm. After culturing for 24 hr, recombinant baculovirus BAC-HER2 (13.4 mL) was added, and the mixture was further cultured for 3 days. The culture medium was centrifuged at 2,000 rpm for 5 min to give virus-infected cells. The infected cells were washed with a phosphate buffered saline (Invitrogen), centrifuged under the same conditions, and the cells were preserved at −80° C. The cryopreserved cells were thawed in ice, suspended in buffer A (50 mM Tris buffer (30 mL, pH 7.4) containing 20% glycerol, 0.15 M NaCl) supplemented with Complete Protease Inhibitor (Boehringer), and ruptured 3 times with a Polytron homogenizer (Kinematica) at 20,000 rpm for 30 sec. The ruptured solution was clarified by centrifugation at 40,000 rpm for 30 min, and filtered with a 0.45 μm filter. The filtrate was passed through a column packed with Anti-FLAG M2 Affinity Gel (4 mL, Sigma-Aldrich) at a flow rate of about 0.5 mL/min. The column was washed with buffer A, and eluted with buffer A containing 100 μg/mL of FLAG peptide. The eluent was concentrated with Vivaspin 20 (Vivascience) having a molecular weight cut off of 30K. The concentrate was purified by gel filtration using Hi Load 16/60 Superdex 200 pg (GE Healthcare Bioscience) equilibrated with buffer A. The fractions containing HER2 intracellular domain were collected and cryopreserved at −80° C.
HER2 kinase reaction was performed using a 96 well plate. As a buffer for kinase reaction, a buffer having a composition of 50 mM Tris-HCl (pH 7.5), 5 mM MnCl2, 2 mM dithiothreitol, 0.01% Tween-20 was used. The compound of the present invention was dissolved in dimethyl sulfoxide (DMSO), and diluted with the kinase reaction buffer so that DMSO concentration would be 0.1% during kinase reaction. This compound solution (10 μL) was mixed with a kinase reaction buffer […] containing HER2 intracellular domain (0.625 μg/mL) obtained in Experimental Example 1B and polypeptide substrate poly-Glu:Tyr (4:1) (Sigma Ltd., 12.5 μg/mL), and the mixture was stood at room temperature for 5 min. Then, a kinase reaction buffer (20 μL) containing 125 μM ATP and 45 μCi/mL [γ-^32P]ATP was added, and the kinase reaction was initiated with 50 μL of the final reaction mixture. A kinase reaction was performed at room temperature for 10 min, and the kinase reaction was quenched by addition of 20% TCA solution (50 μL). The mixture after completion of the reaction was stood at room temperature for 30 min, and acid insoluble fractions in the mixture after completion of the reaction were collected in a 96 well GF/C filter plate (PerkinElmer) using a cell harvester (PerkinElmer). Thereafter, the filter containing the acid insoluble fractions was washed with 3% phosphoric acid solution. After washing, the filter plate was dried at 45° C. for 60 min, and 25 μL of MicroScinti 0 (PerkinElmer) was added. The radioactivity was measured using TopCount (PerkinElmer). HER2 kinase inhibitory rate (%) of the test compound was calculated by the following formula: […]

[2] = test system: human breast cancer cell BT-474; experiment: Inhibitory action on breast cancer cell BT-474 proliferation in vitro; format: cell-based; details: 120 h, BT-474 cells, cultured for 5 days with compound, SRB protein content
Procedure: A suspension of human breast cancer cell BT-474 (100 μl (6,000 cells)) were plated in a 96-well microplate and cultured in an incubator (37° C., 5% carbon dioxide). On the following day, 100 μl of a solution of each test compound previously diluted serially in 2-fold, was added, and the cells were cultured for 5 days. After the culture medium containing the test compound was removed, the cells were washed and fixed with 50% trichloroacetic acid, after which a 0.4% (w/v) SRB dye solution (dissolved in 1% acetic acid) was added to stain as well as fix the cell protein (Skehan et al., Journal of the National Cancer Institute, Vol. 82, pp. 1107-1112, 1990). After washing with a 1% acetic acid solution, 100 μl of extract solution (10 mM, Tris buffer) was added to extract the dye and the absorbance was measured at a wavelength of 550 nm to quantify the amount of cells as protein content. Taking as 100% the protein content for the control group, which received no test compound solution, the ratio of the residual protein content for each treatment group was determined, and the compound concentration required to achieve 50% suppression of the residual cell content relative to the control (IC50 value) was calculated.

| Structure (SMILES) | inhibition at 1 µM [1] [%] | IC50 [2] [nM] |
| --- | --- | --- |
| CC(C)(CO)C(=O)NCCn1ccc2ncnc(Nc3ccc(Oc4ccn5ccnc5c4)c(Cl)c3)c21 [Example 164, N-[2-(4-{[3-chloro-4-(imidazo[1,2-a]pyridin-7-yloxy)phenyl]amino}-5H-pyrrolo[3,2-d]pyrimidin-5-yl)ethyl]-3-hydroxy-2,2-dimethylpropanamide] | 100 |  |
| OCCn1ccc2ncnc(Nc3ccc(Oc4cccc5[nH]ncc45)c(Cl)c3)c21 [Example 95, 2-(4-{[3-chloro-4-(1H-indazol-4-yloxy)phenyl]amino}-5H-pyrrolo[3,2-d]pyrimidin-5-yl)ethanol] | 100 | < 100 |
| O=C1Cc2c(cccc2Oc2ccc(Nc3ncnc4ccn(CCO)c34)cc2Cl)N1 [Example 28, 4-(2-chloro-4-{[5-(2-hydroxyethyl)-5H-pyrrolo[3,2-d]pyrimidin-4-yl]amino}phenoxy)-1,3-dihydro-2H-indol-2-one] | 100 | < 100 |
| CC(C)(CO)C(=O)NCCn1ccc2ncnc(Nc3ccc(Oc4ccc5ccnn5c4)c(Cl)c3)c21 [Example 159, N-[2-(4-{[3-chloro-4-(pyrazolo[1,5-a]pyridin-6-yloxy)phenyl]amino}-5H-pyrrolo[3,2-d]pyrimidin-5-yl)ethyl]-3-hydroxy-2,2-dimethylpropanamide methanesulfonate] | 100 |  |
| CC(C)(C)NC(=O)c1cccc(Oc2ccc(Nc3ncnc4ccn(CCO)c34)cc2Cl)n1 [Example 29, N-(tert-butyl)-6-(2-chloro-4-{[5-(2-hydroxyethyl)-5H-pyrrolo[3,2-d]pyrimidin-4-yl]amino}phenoxy)pyridine-2-carboxamide] | 100 |  |
| CC(C)(O)CC(=O)NCCn1ccc2ncnc(Nc3ccc(Oc4ccc5ccnn5c4)c(Cl)c3)c21 [Example 147, N-[2-(4-{[3-chloro-4-(pyrazolo[1,5-a]pyridin-6-yloxy)phenyl]amino}-5H-pyrrolo[3,2-d]pyrimidin-5-yl)ethyl]-3-hydroxy-3-methylbutanamide hydrochloride] |  | < 100 |
| OCCn1ccc2ncnc(Nc3ccc(Oc4cccc5sccc45)c(Cl)c3)c21 [Example 83, 2-(4-{[4-(1-benzothiophen-4-yloxy)-3-chlorophenyl]amino}-5H-pyrrolo[3,2-d]pyrimidin-5-yl)ethanol] | 99 |  |
| CC(C)(CO)C(=O)NCCn1ccc2ncnc(Nc3ccc(Oc4cccc5sccc45)c(Cl)c3)c21 [Example 114, N-[2-(4-{[4-(1-benzothiophen-4-yloxy)-3-chlorophenyl]amino}-5H-pyrrolo[3,2-d]pyrimidin-5-yl)ethyl]-3-hydroxy-2,2-dimethylpropanamide] |  | < 100 |
| CN1C(=O)Cc2c(Oc3ccc(Nc4ncnc5cc(Cl)n(CCO)c45)cc3Cl)cccc21 [Example 170, 4-(2-chloro-4-{[6-chloro-5-(2-hydroxyethyl)-5H-pyrrolo[3,2-d]pyrimidin-4-yl]amino}phenoxy)-1-methyl-1,3-dihydro-2H-indol-2-one] | 97 |  |
| CC(C)(CO)C(=O)NCCn1ccc2ncnc(Nc3ccc(Oc4cccc5sccc45)c(Cl)c3)c21 [Example 127, N-[2-(4-{[4-(1-benzothiophen-4-yloxy)-3-chlorophenyl]amino}-5H-pyrrolo[3,2-d]pyrimidin-5-yl)ethyl]-3-hydroxy-2,2-dimethylpropanamide tosylate] | 99 |  |
| Cn1ccc2ncnc(Nc3ccc(Oc4cccc5[nH]ncc45)c(Cl)c3)c21 [Example 86, N-[3-chloro-4-(1H-indazol-4-yloxy)phenyl]-5-methyl-5H-pyrrolo[3,2-d]pyrimidin-4-amine] |  | < 100 |
| OCCn1ccc2ncnc(Nc3ccc(Oc4cccc5[nH]ccc45)c(Cl)c3)c21 [Example 10, 2-(4-{[3-chloro-4-(1H-indol-4-yloxy)phenyl]amino}-5H-pyrrolo[3,2-d]pyrimidin-5-yl)ethanol] | 99 | < 100 |
| CC(C)(C)NC(=O)c1cncc(Oc2ccc(Nc3ncnc4ccn(CCO)c34)cc2Cl)c1 [Example 26, N-(tert-butyl)-5-(2-chloro-4-{[5-(2-hydroxyethyl)-5H-pyrrolo[3,2-d]pyrimidin-4-yl]amino}phenoxy)nicotinamide] | 100 | < 100 |
| CC(C)(CO)C(=O)NCCn1ccc2ncnc(Nc3ccc(Oc4ccn5ncnc5c4)c(Cl)c3)c21 [Example 166, N-[2-(4-{[3-chloro-4-([1,2,4]triazolo[1,5-a]pyridin-7-yloxy)phenyl]amino}-5H-pyrrolo[3,2-d]pyrimidin-5-yl)ethyl]-3-hydroxy-2,2-dimethylpropanamide] |  | < 100 |
